Like-named read-outs stand apart in the source and are kept apart here.
What was measured:
[1] = tested on: T lymphocyte proliferation; assay: T lymphocyte proliferation, stimulus with Con A (CPM); type: cell-based
T lymphocyte = assay: Cell survival rate (OD) of lymphocytes with JK12A; type: cell-based
mice [2] = assay: Acute toxicity study of JK12A; type: in vivo; details: dose of 2000 mg/kg
mice [3] = assay: Single dose toxicity of JK1303, kidney findings after 14 days; type: in vivo; details: 14 days after a single dose of 1000 mg/kg
[4] = acute toxicity test data published at present; cited from earlier work
mice [5] = details: after harmful impurities eliminated by the technology of the invention
[6] = Concentration determined 0.164 M
[7] = Concentration determined 0.41 M
[8] = Concentration determined 1.024 M
[9] = Concentration determined 2.56 M
[10] = Concentration determined 16.0 M
[11] = Concentration determined 100.000 µM
[12] = Amount of VC 0, day 0, 25° C. and 40% humidity
[13] = Amount of VC 0, day 7, 25° C. and 40% humidity
[14] = Amount of VC 0, day 15, 25° C. and 40% humidity
[15] = Amount of VC 0, day 30, 25° C. and 40% humidity
[16] = Amount of VC 0, day 60, 25° C. and 40% humidity
[17] = Amount of VC 20%, day 0, 25° C. and 40% humidity
[18] = Amount of VC 20%, day 7, 25° C. and 40% humidity
[19] = Amount of VC 20%, day 15, 25° C. and 40% humidity
[20] = Amount of VC 20%, day 30, 25° C. and 40% humidity
[21] = Amount of VC 20%, day 60, 25° C. and 40% humidity
[22] = Amount of VC 100%, day 0, 25° C. and 40% humidity
[23] = Amount of VC 100%, day 7, 25° C. and 40% humidity
[24] = Amount of VC 100%, day 15, 25° C. and 40% humidity
[25] = Amount of VC 100%, day 30, 25° C. and 40% humidity
[26] = Amount of VC 100%, day 60, 25° C. and 40% humidity
[27] = Amount of VC 500%, day 0, 25° C. and 40% humidity
[28] = Amount of VC 1000%, day 0, 25° C. and 40% humidity
[29] = Amount of VC 10000%, day 0, 25° C. and 40% humidity

Q: For `CN1C2CNC3=NC(N)=NCC31N(c1ccc(C(=O)NC(CCC(=O)O)C(=O)O)cc1)C2` (centres unmarked) [JK12A], which “effect on T lymphocyte proliferation” value [1] is on record?
A: significant inhibitory effect

Q: What about the “T cell proliferation Comprehensive evaluation Percent enhancement/inhibition” value [1, 6] of the same molecule?
A: −8%

Q: And the “T lymphocyte Stimulus with Con A Mean CPM” value (shortened to “T lymphocyte Stimulus”) [1, 6]?
A: 40459 CPM

Q: What about the “T cell proliferation Comprehensive evaluation Percent enhancement/inhibition” value [1, 7] of the same molecule?
A: −68%

Q: What about the “T lymphocyte Stimulus” value [1, 7] of the same molecule?
A: 14073 CPM

Q: What about the “T cell proliferation Comprehensive evaluation Percent enhancement/inhibition” value [1, 8] of the same molecule?
A: −60%

Q: What about the “T lymphocyte Stimulus” value [1, 8] of the same molecule?
A: 17590 CPM

Q: And the “T cell proliferation Comprehensive evaluation Percent enhancement/inhibition” value [1, 9]?
A: −42%

Q: And the “T lymphocyte Stimulus” value [1, 9]?
A: 25507 CPM

Q: What about the “T cell proliferation Comprehensive evaluation Percent enhancement/inhibition” value ([1]; Concentration determined 6.4 M) of the same molecule?
A: −30%

Q: What about the “T lymphocyte Stimulus” value ([1]; Concentration determined 6.4 M) of the same molecule?
A: 30784 CPM

Q: What about the “T cell proliferation Comprehensive evaluation Percent enhancement/inhibition” value [1, 10] of the same molecule?
A: −18%

Q: What about the “T lymphocyte Stimulus” value [1, 10] of the same molecule?
A: 36061 CPM

Q: And the “T cell proliferation Comprehensive evaluation Percent enhancement/inhibition” value ([1]; Concentration determined […])?
A: −1%

Q: And the “T lymphocyte Stimulus” value ([1]; Concentration determined […])?
A: 43537 CPM

Q: And the Cell survival rate (T lymphocyte; [11])?
A: 73%

Q: What about the “Mean OD” value (T lymphocyte; [11]) of the same molecule?
A: 0.089

Q: And the Cell survival rate (T lymphocyte; [7])?
A: 75%

Q: What about the “Mean OD” value (T lymphocyte; [7]) of the same molecule?
A: 0.052

Q: And the Cell survival rate (T lymphocyte; [8])?
A: 59%

Q: What about the “Mean OD” value (T lymphocyte; [8]) of the same molecule?
A: 0.073

Q: What about the Cell survival rate (T lymphocyte; [9]) of the same molecule?
A: 62%

Q: What about the “Mean OD” value (T lymphocyte; [9]) of the same molecule?
A: 0.076

Q: What about the Cell survival rate (T lymphocyte; Concentration determined 6.4 M) of the same molecule?
A: 84%

Q: And the “Mean OD” value (T lymphocyte; Concentration determined 6.4 M)?
A: 0.103

Q: And the Cell survival rate (T lymphocyte; [10])?
A: 92%

Q: And the “Mean OD” value (T lymphocyte; [10])?
A: 0.113

Q: And the Cell survival rate (T lymphocyte; Concentration determined […])?
A: 89%

Q: And the “Mean OD” value (T lymphocyte; Concentration determined […])?
A: 0.109

Q: What about the “anatomical findings in liver and kidney” value (mice [2]) of the same molecule?
A: no significant changes

Q: What does the source list for `CN1C2CNC3=NC(N)=NCC31N(c1ccc(C(=O)O)cc1)C2` (centres unmarked) [JK1303]?
A: anatomical finding in the renal tubules (mice [3]): a large number of vacuoles; renal toxicity finding (mice [3]): severe renal tubular necrosis

Q: Which “(6S)-5-methyl tetrahydrofolic acid calcium salt content” value [12] does the source give for “(6S)-5-methyl tetrahydrofolic acid calcium salt [Example 11]” here?
A: 99.95%

Q: And the JK12A content [12]?
A: 0.03%

Q: What about the “(6S)-5-methyl tetrahydrofolic acid calcium salt content” value [13] of the same molecule?
A: 99.90%

Q: And the JK12A content [13]?
A: 0.06%

Q: What about the “(6S)-5-methyl tetrahydrofolic acid calcium salt content” value [14] of the same molecule?
A: 99.85%

Q: What about the JK12A content [14] of the same molecule?
A: 0.12%

Q: What about the “(6S)-5-methyl tetrahydrofolic acid calcium salt content” value [15] of the same molecule?
A: 99.63%

Q: What about the JK12A content [15] of the same molecule?
A: 0.25%

Q: What about the “(6S)-5-methyl tetrahydrofolic acid calcium salt content” value [16] of the same molecule?
A: 99.40%

Q: And the JK12A content [16]?
A: 0.46%

Q: What about the “(6S)-5-methyl tetrahydrofolic acid calcium salt content” value [17] of the same molecule?
A: 99.95%

Q: And the JK12A content [17]?
A: 0.03%

Q: And the “(6S)-5-methyl tetrahydrofolic acid calcium salt content” value [18]?
A: 99.94%

Q: And the JK12A content [18]?
A: 0.04%

Q: What about the “(6S)-5-methyl tetrahydrofolic acid calcium salt content” value [19] of the same molecule?
A: 99.89%

Q: And the JK12A content [19]?
A: 0.08%

Q: What about the “(6S)-5-methyl tetrahydrofolic acid calcium salt content” value [20] of the same molecule?
A: 99.71%

Q: What about the JK12A content [20] of the same molecule?
A: 0.17%

Q: And the “(6S)-5-methyl tetrahydrofolic acid calcium salt content” value [21]?
A: 99.50%

Q: What about the JK12A content [21] of the same molecule?
A: 0.22%

Q: And the “(6S)-5-methyl tetrahydrofolic acid calcium salt content” value [22]?
A: 99.95%

Q: What about the JK12A content [22] of the same molecule?
A: 0.03%

Q: And the “(6S)-5-methyl tetrahydrofolic acid calcium salt content” value [23]?
A: 99.94%

Q: And the JK12A content [23]?
A: 0.03%

Q: And the “(6S)-5-methyl tetrahydrofolic acid calcium salt content” value [24]?
A: 99.90%

Q: And the JK12A content [24]?
A: 0.05%

Q: What about the “(6S)-5-methyl tetrahydrofolic acid calcium salt content” value [25] of the same molecule?
A: 99.90%

Q: What about the JK12A content [25] of the same molecule?
A: 0.05%

Q: And the “(6S)-5-methyl tetrahydrofolic acid calcium salt content” value [26]?
A: 99.86%

Q: What about the JK12A content [26] of the same molecule?
A: 0.10%

Q: What about the “(6S)-5-methyl tetrahydrofolic acid calcium salt content” value [27] of the same molecule?
A: 99.95%

Q: What about the JK12A content [27] of the same molecule?
A: 0.03%

Q: And the “(6S)-5-methyl tetrahydrofolic acid calcium salt content” value (Amount of VC 500%, day 7, 25° C. and 40% humidity)?
A: 100.00%

Q: What about the “(6S)-5-methyl tetrahydrofolic acid calcium salt content” value (Amount of VC 500%, day 15, 25° C. and 40% humidity) of the same molecule?
A: 100.00%

Q: And the “(6S)-5-methyl tetrahydrofolic acid calcium salt content” value (Amount of VC 500%, day 30, 25° C. and 40% humidity)?
A: 99.98%

Q: What about the “(6S)-5-methyl tetrahydrofolic acid calcium salt content” value (Amount of VC 500%, day 60, 25° C. and 40% humidity) of the same molecule?
A: 99.96%

Q: What about the “(6S)-5-methyl tetrahydrofolic acid calcium salt content” value [28] of the same molecule?
A: 99.95%

Q: What about the JK12A content [28] of the same molecule?
A: 0.03%

Q: And the “(6S)-5-methyl tetrahydrofolic acid calcium salt content” value (Amount of VC 1000%, day 7, 25° C. and 40% humidity)?
A: 100.00%

Q: And the “(6S)-5-methyl tetrahydrofolic acid calcium salt content” value (Amount of VC 1000%, day 15, 25° C. and 40% humidity)?
A: 100.00%

Q: And the “(6S)-5-methyl tetrahydrofolic acid calcium salt content” value (Amount of VC 1000%, day 30, 25° C. and 40% humidity)?
A: 100.00%

Q: What about the “(6S)-5-methyl tetrahydrofolic acid calcium salt content” value (Amount of VC 1000%, day 60, 25° C. and 40% humidity) of the same molecule?
A: 100.00%

Q: What about the “(6S)-5-methyl tetrahydrofolic acid calcium salt content” value [29] of the same molecule?
A: 99.95%

Q: What about the JK12A content [29] of the same molecule?
A: 0.03%

Q: And the “(6S)-5-methyl tetrahydrofolic acid calcium salt content” value (Amount of VC 10000%, day 7, 25° C. and 40% humidity)?
A: 100.00%

Q: What about the “(6S)-5-methyl tetrahydrofolic acid calcium salt content” value (Amount of VC 10000%, day 15, 25° C. and 40% humidity) of the same molecule?
A: 100.00%

Q: What about the “(6S)-5-methyl tetrahydrofolic acid calcium salt content” value (Amount of VC 10000%, day 30, 25° C. and 40% humidity) of the same molecule?
A: 100.00%

Q: And the “(6S)-5-methyl tetrahydrofolic acid calcium salt content” value (Amount of VC 10000%, day 60, 25° C. and 40% humidity)?
A: 100.00%

Q: Which results are given for calcium (6S)-5-methyltetrahydrofolate?
A: LD50 (median lethal dose) [4]: 2000 mg/kg; response of mice (mice [5]; dosage of 15000 mg/kg): no abnormal response; maximum tolerable dose (MTD) (mice [5]; mice): greater than 15 g/kg

From patent US10398697B2, “Solid solution comprising (6S)-5-methyl tetrahydrofolic acid or salt thereof, and preparation and use thereof” (priority 2014, dated 2019)
